Laboratory results: patent US20240099989A1, “AGENT FOR PREVENTING OR IMPROVING PERIPHERAL NEUROPATHY” (KINKI UNIVERSITY, priority 2021, published 2024)

System: Diabetic Peripheral Neuropathy in a Mouse Induced by Streptozotocin
Assay: Cold plate test (4° C.), diabetic peripheral neuropathy induced by streptozotocin
Assay type: in vivo, C57BL/6J mice
Conditions: time course
Protocol: Six to seven-week-old male C57BL/6J mice were used for the tests as with Example 7. All the mice were acclimated for seven days after arrival. Then, the mice were grouped into the following four groups: a control group, a group receiving streptozotocin, a group receiving 1 mg/kg xylitol, and a group receiving streptozotocin+1 mg/kg xylitol. Each group consisted of nine mice.
The mice in the group receiving 1 mg/kg xylitol were orally administered with xylitol at a dose of 1 mg/kg daily from Day 0. The mice in the group receiving streptozotocin+1 mg/kg xylitol were orally administered with xylitol at a dose of 1 mg/kg daily from Day 21 of administration.
A cold plate test was performed to examine the effect due to xylitol on paresthesia that is caused by a low temperature stimulus. The mice in the four groups described in (1) of the present example (Example 8) were placed on a cold plate set at 4° C., and withdrawal response time (latent time) was measured. It is presumed that a shorter withdrawal response time (latent time) reflects a greater degree of shunning the low temperature stimulus by the cold plate. […]
On Day 8 of acclimation, the mice in the group receiving streptozotocin and the group receiving streptozotocin+5 mg/kg D-threitol were administered with streptozotocin at a dose of 200 mg/kg. A massive dose of streptozotocin destroys pancreatic cells in the mice. As a result, insulin is no longer secreted, and thus, diabetes can be developed in the mice. This day was designated as the first day of the administration (Day 0). Note that streptozotocin was administered only on the first day of administration.
The mice in the group receiving 5 mg/kg D-threitol and the group receiving streptozotocin+5 mg/kg D-threitol were orally administered with D-threitol at a dose of 5 mg/kg daily from Day 0. […]
The mice in the group receiving 5 mg/kg D-threitol were orally administered with D-threitol at a dose of 5 mg/kg daily from Day 0. The mice in the group receiving streptozotocin+5 mg/kg D-threitol were orally administered with D-threitol at a dose of 5 mg/kg daily from Day 21 of administration.
(§1) A cold plate test was performed to examine the effect of D-threitol on paresthesia that is caused by a low temperature stimulus. The mice in the four groups described in (1) of the present example (Example 10) were placed on a cold plate set at 4° C., and withdrawal response time (latent time) was measured. […]
as §1, with “L-talitol” for “D-threitol”, “11)” for “10)”

[1] = streptozotocin 200 mg/kg + 5 mg/kg orally daily from Day 21 (therapy)

SMILES	withdrawal response time (latent time) [1]	withdrawal response time (latent time) (streptozotocin 200 mg/kg + 1 mg/kg orally daily from Day 21 (therapy))
OC[C@H](O)[C@H](O)[C@H](O)[C@@H](O)CO [L-talitol]	extended from Day 21 onwards	
OC[C@@H](O)[C@H](O)CO [D-threitol]	extended from Day 21 onwards	
OC[C@@H](O)[C@H](O)[C@@H](O)CO [xylitol]		extended from Day 21 onwards
